From publication PMC6232370, “Metabolism and Bioactivation of Corynoline With Characterization of the Glutathione/Cysteine Conjugate and Evaluation of Its Hepatotoxicity in Mice” (Frontiers in Pharmacology, 2018)

Legend:
BALB/c male mice = assay: Hepatotoxicity study in mice; assay type: in vivo
Procedure: Thirty-six BALB/c male mice were randomly divided into four groups (nine animals per group) including control group, low (125 mg/kg), middle (250 mg/kg), and high (500 mg/kg) three dosages group. CRL was dissolved firstly in DMSO and then prepared in 0.5% carboxymethyl cellulose sodium (CMC-Na) to make a suspension of 10, 20, and 30 mg/mL and the final concentration of DMSO in the suspension was no more than 5%. CRL was administered to the mice in different groups through oral gavage. Mice in control group were given equal volume 0.5% CMC-Na (contained 5% DMSO) solution with high dosage group. Blood samples were drawn from the orbital vein using cannulation under anesthesia at 24 h after oral administration. After centrifugation at 2,000 g for 15 min, the serum samples were stored at −20°C until analysis. Then mice were euthanized by decapitation after blood collection. Samples of liver were obtained and one part of which was fixed in 10% formaldehyde for observing histological change with optical microscope. The content of ALT and AST in mice serum was detected according the operation instruction of the kit.

[1] = tested on: human A549, SK-OV-3, SK-MEL-2, and HCT15 tumor cells; design: method as in Choi et al. (2007); conditions: ref Choi et al. (2007), read-out: 50% growth inhibition values; cited from earlier work
[2] = Tissue distribution of CRL in mice; assay type: in vivo; conditions: 250 mg/kg intragastric
Procedure: Thirty BALB/c male mice were fasted overnight but allowed access to water before drug administration. Five groups of mice (six mice per group) were intragastric administered a single dose of 250 mg/kg CRL. The mice in five groups were euthanized by decapitation at pre-dose, 0.5, 2, 4, and 8 h after dosing, respectively. Tissues including heart, liver, spleen, lung, kidney, and brain were dissected and washed with saline, then were blotted with filter paper and weighed accurately. The tissue samples were homogenized in ice-cold saline (1:3, w/v, g/mL). These tissue homogenates were then stored at −20°C and allowed to thaw at room temperature and vortex-mixed before processing. A 200 μL tissue sample was mixed with 5 μL IS solution (donepezil, 500 ng/mL). The mixture was deproteinized with 800 μL of acetonitrile, vortexed for 5 min, and then centrifuged at 17,000 × g for 10 min. An aliquot of 5 μL supernatant was then used for quantifying the content of CRL in each tissue by the LC-MS/MS.

[3] = mice, 24 h after oral administration of 125, 250, and 500 mg/kg, P > 0.05

SMILES: CN1Cc2c(ccc3c2OCO3)[C@@]2(C)[C@@H](O)Cc3cc4c(cc3[C@@H]12)OCO4 [CRL, Corynoline]
- Histopathological examination of the liver (BALB/c male mice; mice, 125, 250, and 500 mg/kg oral, 24 h): no pathological changes
- ALT in serum and livers compared with the control group (BALB/c male mice; [3]): not significantly different
- AST in serum and livers compared with the control group (BALB/c male mice; [3]): not significantly different
- Abnormal behaviors compared with control group (BALB/c male mice; mice, drug treatment groups 125–500 mg/kg oral, at about 10 min after administration, more pronounced with increasing dosage): lying on the bedding and shivering
- Body temperature of most mice (BALB/c male mice; mice, drug treatment groups 125–500 mg/kg oral, more pronounced with increasing dosage): lower than normal
- Hepatotoxicity / acute liver injury (BALB/c male mice; mice, experimental dosage 125–500 mg/kg oral): no obvious hepatotoxicity
- Dead mice after drug administration (all dosage groups) (BALB/c male mice; mouse, in vivo): three of them were dead
- Dead mice in high dosage group (BALB/c male mice; mouse, in vivo): two mice
- Dead mice in middle dosage group (BALB/c male mice; mouse, in vivo): one mouse
- IC50 [1]: 5.27 to 6.14 µM
- Blood–brain barrier passage [2]: could traverse the blood–brain barrier
- Highest concentration level in brain ([2]; single dose, mean ± SD): 40.53 ± 20.50 µg/g
- Highest concentration level in kidney ([2]; single dose, mean ± SD): 68.73 ± 46.89 µg/g
- Highest concentration level in liver ([2]; single dose, mean ± SD): 92.91 ± 65.11 µg/g
- Highest concentration level in lung ([2]; single dose, mean ± SD): 27.27 ± 22.17 µg/g
- Highest concentration level in spleen ([2]; single dose, mean ± SD): 25.22 ± 18.67 µg/g
- concentration at 2 h ([2]; male, BALB/c, mouse, plasma, oral, at 2 h post dosing, mean ± SD): 18.4 ± 14.2 µg/mL
- Tmax ([2]; male, BALB/c, mouse, tissues (heart, liver, spleen, lung, kidney, brain), po, tissues, post dosing, read-out: Time to reach the maximum concentration): 2 h
